Patent US12642786B2, “Methods, compositions and kits for treating multiple sclerosis and other disorders” (The Johns Hopkins University, priority 2018, dated 2026)

Assays:
[1] = system: EAE (MOG35-55 immunized mice); test: EAE prevention paradigm, clinical scoring; type: in vivo, C57BL/6J mice; details: 30 μg/kg i.p. 3 d per week from day of MOG35-55 immunization (day 0)
Text: Experimental autoimmune encephalomyelitis (EAE) is an experimental animal model that recapitulates some aspects of MS. In the active-induction model of mouse EAE, mice are immunized with a peptide derived from myelin oligodendrocyte glycoprotein (MOG35-55), resulting in robust CNS inflammation causing demyelination, axonal injury, and motor weakness/paralysis.
Active EAE was induced in 8-12 wk-old female C57BL/6J mice that had been allowed to acclimatize to the animal facility for at least 1 wk. MOG35-55 peptide dissolved in PBS at a concentration of 2 mg/mL was mixed 1:1 with complete Freund's adjuvant to make an emulsion. On day 0, mice were immunized by injecting 50 μL of the emulsion s.c. into each of two sites on the lateral abdomen. In addition, on day 0 and again on day 2, mice were injected intraperitoneally with 250 ng pertussis toxin. Mice were weighed and scored beginning on day 7 post-immunization. Scoring was performed in a blinded manner according to the following scale:
Bryo-1 was prepared by initially dissolving in 100% ethanol and then further diluting to 20% ethanol and 1% DMSO in PBS. The final concentration of bryo-1 was […] Mice were treated by i.p. injection of […] bryo-1 or an equal volume of vehicle control (20% ethanol and 1% DMSO in PBS) 3 d per week (Monday, Wednesday, Friday). […]

[2] = system: CD4+, Th1 and Th17 lymphocytes in EAE mice; test: Flow cytometry of spinal cord in EAE mice treated from clinical score 1.0; type: in vivo, C57BL/6J mice; details: day 18 post-immunization (late peak), treatment started at score 1.0
Method: Mice were killed with pentobarbital and perfused via cardiac puncture with ice-cold HBSS without cations. Brain, spinal cord (collected using hydrostatic pressure), spleen, and lymph node tissue were isolated after perfusion and were mechanically dissociated by passing through 100-μm cell strainers. For CNS tissue, after dissociation, infiltrating mononuclear cells were separated from myelin debris using a 37/70% percoll gradient. After dissociation, spleens were incubated in ACK lysis buffer to remove red blood cell contamination. Cells were counted using a MACSQuant flow cytometer (Miltenyi Biotec).
For surface marker and intracellular cytokine staining of T cells, the cells were first restimulated with a cell stimulation mixture with protein transport inhibitors (eBioscience, catalog #00-4975-03) for 4 h in cRPMI at 37° C. They then underwent live/dead and surface marker staining as earlier. For intracellular cytokine staining, cells were permeabilized and fixed using either IC Fixation buffer for cytokine analysis (eBioscience, 00-8222-49) or FoxP3 fixation/permeabilization buffer for transcription factor analysis (eBioscience, 00-5521-00) after manufacturer recommended protocol and incubated with specific conjugated antibodies for the specified proteins in permeabilization buffer for 1 h.
(§1) Cells were analyzed by flow cytometry using a MACSQuant flow cytometer (Miltenyi Biotec). Flow data analysis was performed in FlowJo (FlowJo) or FlowLogic (Inivai).

[3] = system: bone marrow-derived dendritic cells (BMDCs); test: BMDC CD40 and CD86 expression by flow cytometry; type: cell-based, C57BL/6J mice
Method: All staining procedures were performed in the dark at room temperature. For analysis of surface marker expression on bone marrow-derived DCs, cells were first stained with LIVE/DEAD aqua (Life Technologies, L-34966) for 30 min at room temperature in PBS. Fc receptors were blocked with anti-CD16/CD32 (Biolegend, 101320) for the final 10 min of staining. The cells were then washed and stained with specific conjugated antibodies for the specified surface markers in FACS buffer (PBS supplemented with 2% FBS and 1 mM EDTA) for 30 min.
as §1
BMDCs were generated as described in Lutz, “An advanced culture method for generating large quantities of highly pure dendritic cells from mouse bone marrow,” 1999, J. Immunol. Methods 223:77-92, with minor modifications. Briefly, femurs were removed from 6-10-wk-old female C57BL/6J mice, cut on both ends, and marrow flushed with PBS. Bone marrow cells were then pelleted by centrifugation (500×g for 8 min), resuspended in red blood cell lysis buffer (Sigma) for 1 min, and quenched with excess PBS. After another centrifugation, cells were resuspended in complete RPMI (cRPMI) media consisting of RPMI-1640 with GlutaMAX™ supplement (Thermo Fisher Scientific) supplemented with 10% FBS, penicillin-streptomycin (Gibco), and 50 μM 2-mercaptoethanol (Sigma). On day 0, ˜2×10^6 cells were then seeded per 100-mm plate in 10 mL media containing 20 ng/mL rmGM-CSF (Peprotech). On day 3, an additional 10 mL fresh cRPMI media containing 20 ng/mL rmGM-CSF was added to each plate. On day 6, half the culture supernatant from each plate was removed and centrifuged, and the pelleted cells resuspended in 10 mL fresh cRPMI with 20 ng/mL rmGM-CSF and added back to the plates. On day 8, all nonadherent cells (representing the BMDC fraction) were collected, pelleted by centrifugation, resuspended in fresh cRPMI media with 20 ng/mL rmGM-CSF, and plated into 24-well dishes. These BMDCs were then treated overnight with or without LPS 100 ng/mL plus the indicated doses of bryo-1. The following day (day 9), these cells were then assayed by flow cytometry or cytokine ELISA.

[4] = system: neurospheres; test: Neurospheres, staining for oligodendrocyte marker; type: cell-based; details: 20 nM every other day for 1 week
Text: We examined the effect of bryo-1 on neurospheres, which are neural stem cell-like cells.

[5] = system: corpus callosum remyelination; test: Cuprizone-induced demyelination, Black-Gold II myelin staining; type: in vivo, C57BL/6J mice; details: 30 μg/kg IP every other day from re-feeding, day 8 after re-feeding
Method: Cuprizone-induced demyelination was elicited as described by Baxi et al., Glia (2017) 65:2087-098, with minor modification. Female C57BL/6J mice (8 weeks old) were fed 0.2% cuprizone for 5 weeks to induce demyelination of the corpus callosum and then returned to normal feed. The mice (n=2 per group) were then treated with either bryo-1 (30 μg/kg) or vehicle by IP injection every other day beginning on the first day of re-feeding with normal feed, and the extent of corpus callosum remyelination was assessed by Black-Gold II myelin staining on day 8 after re-feeding.

SMILES: CCC/C=C/C=C/C(=O)OC1/C(=C/C(=O)OC)CC2CC(C(C)O)OC(=O)CC(O)CC3CC(OC(C)=O)C(C)(C)C(O)(CC4C/C(=C/C(=O)OC)CC(/C=C/C(C)(C)C1(O)O2)O4)O3 (stereo not shown) [bryo-1, Bryostatin-1]
- onset of EAE (clinical course) [1]: abolished the onset of EAE
- numbers of Th1 cells in spinal cord [2]: significantly diminished numbers
- numbers of Th17 cells in spinal cord [2]: significantly diminished numbers
- total CD4+ lymphocytes in spinal cord [2]: near-significant trend (P=0.06) toward decreased
- CD86 expression in LPS-stimulated BMDCs ([3]; LPS 100 ng/mL): no effect
- LPS-induced up-regulation of CD40 ([3]; LPS 100 ng/mL, bryo-1 at either 20 or 200 nM): abrogated
- CD40 expression ([3]; absence of LPS, overnight): no significant effect
- CD86 expression ([3]; absence of LPS, overnight): up-regulates CD86
- expression of the oligodendrocyte marker 04 [4]: increased expression
- rate of remyelination (extent of Black-Gold II staining) [5]: increased the rate of remyelination
